In article PMC11509018, “Evaluation of the Role of Tanshinone I in an In Vitro System of Charcot-Marie-Tooth Disease Type 2N” (International Journal of Molecular Sciences, 2024):
Positions count from the first letter of the chain named.

Assays:
AlaRS^R326W = target: T1, AlaRS^R326W (Homo sapiens, UniProt P49588, R326W); experiment: Proteolytic digestion assay (trypsin, SDS-PAGE); settings: three hours
T1 construct: made in house; host or cells: E. coli BL21 (DE3), pET-21a
T1 sequence (P49588 1-968 R326W): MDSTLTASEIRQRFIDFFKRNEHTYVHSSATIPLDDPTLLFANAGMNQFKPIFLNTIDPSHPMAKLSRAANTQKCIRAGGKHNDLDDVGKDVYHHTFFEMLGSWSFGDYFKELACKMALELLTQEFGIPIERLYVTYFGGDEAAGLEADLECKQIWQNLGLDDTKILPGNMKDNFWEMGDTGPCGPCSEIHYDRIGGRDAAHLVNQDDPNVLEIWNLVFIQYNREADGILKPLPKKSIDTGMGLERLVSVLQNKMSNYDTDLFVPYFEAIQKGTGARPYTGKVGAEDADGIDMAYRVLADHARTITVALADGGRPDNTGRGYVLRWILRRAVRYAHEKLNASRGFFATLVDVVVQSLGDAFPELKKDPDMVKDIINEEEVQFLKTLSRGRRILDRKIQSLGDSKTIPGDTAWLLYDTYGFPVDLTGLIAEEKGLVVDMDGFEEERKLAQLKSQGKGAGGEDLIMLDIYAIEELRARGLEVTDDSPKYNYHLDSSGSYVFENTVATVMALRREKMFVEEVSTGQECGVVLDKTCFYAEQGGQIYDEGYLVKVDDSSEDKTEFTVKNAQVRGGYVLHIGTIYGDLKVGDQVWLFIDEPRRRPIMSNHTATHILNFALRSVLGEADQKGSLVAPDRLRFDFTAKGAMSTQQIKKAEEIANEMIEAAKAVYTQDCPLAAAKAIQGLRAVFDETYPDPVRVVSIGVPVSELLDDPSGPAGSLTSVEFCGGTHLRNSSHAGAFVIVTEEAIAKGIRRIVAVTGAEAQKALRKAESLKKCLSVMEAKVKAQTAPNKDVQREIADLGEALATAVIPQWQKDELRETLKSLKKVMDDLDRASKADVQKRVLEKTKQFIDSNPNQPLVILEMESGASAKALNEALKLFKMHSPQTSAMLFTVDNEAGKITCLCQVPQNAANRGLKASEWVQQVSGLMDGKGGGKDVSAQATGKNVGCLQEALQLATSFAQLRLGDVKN
Source text: (§1) Furthermore, we examined the interaction of Tanshinone I with additional AlaRS CMT mutants capable of binding to Nrp1 and causing conformational changes by BLI and proteolysis assays on additional related mutants.
(§2) Figure 5 BLI and proteolytic digestion assay of AlaRS mutants with Tanshinone I. Binding sensorgrams for the interaction of Tanshinone I with immobilized AlaRS^R329H (A), AlaRS^G102R (C), AlaRS^R326W (E), and AlaRS^E337K (G). Each sensorgram contains five curves generated from five different concentrations. The KD values are presented as the mean ± SD and experiments were performed in triplicate. The AlaRS^N71Y (B), AlaRS^G102R (D), AlaRS^R326W (F), and AlaRS^E337K (H) proteins (in the presence and absence of Tanshinone I) were incubated with trypsin at different concentrations for three hours before the reactions were quenched, and the products were separated by SDS-PAGE.

AlaRS^G102R = target: T2, AlaRS^G102R (Homo sapiens, UniProt P49588, G102R); experiment: Proteolytic digestion assay (trypsin, SDS-PAGE); settings: three hours
T2 construct: made in house; host or cells: E. coli BL21 (DE3), pET-21a
T2 sequence (P49588 1-968 G102R): T1 sequence (P49588 1-968 R326W) with G102R, W326R
Source text: as §1, §2

How did the “Effect on proteolytic fragments / conformation” value (AlaRS^R326W) turn out when Cc1coc2c1C(=O)C(=O)c1c-2ccc2c(C)cccc12 [Tanshinone I] was run?
The value was “distinct proteolytic fragments after Tanshinone I treatment”.

What about the “Effect on proteolytic fragments / conformation” value (AlaRS^G102R) of the same molecule?
Its value is “more prominent bands at 1/100 after Tanshinone I treatment”.
